Non-standard residues stand in square brackets, D forms with d. Residues, ends and D or L forms follow the SMILES beside them.
target: platelet-derived growth factor β-receptor (PDGFR-β) (Homo sapiens, UniProt P09619); assay: Solid-phase assay: displacement of 125I-PDGF-BB from immobilized PDGFR-β; type: binding; conditions: not given
Procedure: Direct immobilization of platelet-derived growth factor […] is performed by overnight incubation in immunosorbent 96-well plates (Nunc) at 4° C. using 100 ng of purified protein in 100 μl of 15 mM Na2CO3, 35 mM NaHCO3, pH 9.6. The plates are washed once with tris-buffered saline (TBS, 20 mM Tris-HCl, 150 mM NaCl, pH 7.4), and nonspecific adsorption is blocked by at least 1 h of incubation with TBS plus 1% bovine serum albumin (BSA). Following washing with TBS plus 0.1% Tween, 3000 cpm of ^125I-PDGF-BB and increasing amounts of unlabeled PDGF-BB or the peptide derivative of formula I are added to duplicate wells and incubated for 3 h at room temperature in 0.1% Tween, 1 mM CaCl2, 1 mM MgCl2 and 1% BSA. The plates are washed three times with TBS plus 0.1% Tween, and bound ligand is removed with 0.1 M citric acid, pH 2.5, prior to counting in a γ-counter.
Direct immobilization of platelet-derived growth factor β-receptor (PDGFR-β) was performed by overnight incubation in immunosorbent 96-well plates (Nunc) at 4° C. using 100 ng of purified protein in 100 μl of 15 mM Na2CO3, 35 mM NaHCO3, pH 9.6. Plates were washed once with Tris-buffered saline (TBS, 20 mM Tris-HCL, 150 mM Na Cl, pH 7.4), and nonspecific adsorption was blocked by at least 1 h of incubation with TBS plus 1% bovine serum albumin (BSA). Following washing with TBS plus 0.1% Tween, 3000 cpm of ^125I-PDGF-BB and increasing amounts of unlabeled PDGF-BB or the peptides to be tested were added to duplicate wells and incubated for 3 h at room temperature in TBS plus 0.1% Tween, 1 mM CaCl2, 1 mM MgCl2, and 1% BSA. The plates were washed three times with TBS plus 0.1% Tween, and the bound ligand was removed with 0.1 M citric acid, pH 2.5, before counting in a γ-counter.
The cyclic peptides were analyzed and purified by preparative HPLC (dual-pump Pharmacia system with Waters RCM-μBondapak®-C18-cartridges, 10 μm 300 A 25×100 mm for prep. and 8×100 mm for anal., with flow rates of 8 and 2 ml/mim, respectively; UV detection at 226 and 278 nm), then MS, NMR(600 MHz,1 H) and CD. Solid-phase assays were run, as described in 2.4.

platelet-derived growth factor β-receptor (PDGFR-β), sequence (P09619 33-1106, species assumed): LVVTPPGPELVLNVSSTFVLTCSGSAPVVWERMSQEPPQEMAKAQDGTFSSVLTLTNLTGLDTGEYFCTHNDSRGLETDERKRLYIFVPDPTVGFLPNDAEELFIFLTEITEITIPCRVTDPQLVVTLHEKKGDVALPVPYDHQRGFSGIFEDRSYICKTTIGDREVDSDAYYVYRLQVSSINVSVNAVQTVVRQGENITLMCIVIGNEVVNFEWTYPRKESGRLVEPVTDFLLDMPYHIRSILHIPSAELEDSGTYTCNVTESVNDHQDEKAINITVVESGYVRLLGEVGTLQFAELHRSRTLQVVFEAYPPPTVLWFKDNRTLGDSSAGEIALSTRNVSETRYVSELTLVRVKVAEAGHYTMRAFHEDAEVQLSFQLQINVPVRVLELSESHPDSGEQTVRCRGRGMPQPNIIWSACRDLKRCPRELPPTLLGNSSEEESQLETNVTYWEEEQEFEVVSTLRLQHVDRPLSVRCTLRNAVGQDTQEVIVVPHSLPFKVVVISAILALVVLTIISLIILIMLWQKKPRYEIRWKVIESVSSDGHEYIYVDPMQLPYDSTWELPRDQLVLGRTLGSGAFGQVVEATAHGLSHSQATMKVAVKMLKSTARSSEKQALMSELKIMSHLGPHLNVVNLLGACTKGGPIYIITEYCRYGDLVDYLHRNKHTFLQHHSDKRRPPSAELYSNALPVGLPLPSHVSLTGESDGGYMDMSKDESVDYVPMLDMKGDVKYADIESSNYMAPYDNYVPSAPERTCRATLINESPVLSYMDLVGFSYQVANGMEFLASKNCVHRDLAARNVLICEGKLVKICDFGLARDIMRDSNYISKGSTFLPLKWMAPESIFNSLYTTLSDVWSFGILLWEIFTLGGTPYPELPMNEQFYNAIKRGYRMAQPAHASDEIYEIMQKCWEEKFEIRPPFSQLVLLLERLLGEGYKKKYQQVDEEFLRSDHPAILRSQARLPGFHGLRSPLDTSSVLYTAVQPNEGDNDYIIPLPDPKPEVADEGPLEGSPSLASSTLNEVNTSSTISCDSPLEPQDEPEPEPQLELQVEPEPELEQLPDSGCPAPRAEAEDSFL

Structure (SMILES) | IC50
CC(C)[C@@H]1NC(=O)[C@H](Cc2c[nH]c3ccccc23)NC(=O)[C@H](Cc2ccc(O)cc2)NC(=O)[C@@H]2CCCN2C(=O)[C@H]2CCCN2C(=O)[C@H](Cc2ccc(O)cc2)NC(=O)[C@H](Cc2c[nH]c3ccccc23)NC(=O)[C@H](CCCCN)NC(=O)[C@H](CCCCN)NC(=O)[C@H](CCCNC(=N)N)NC1=O [Example 9] (cyclo(YWVRKKWY[dP]P)) | 500 µM

same assay, conditions: competition with 125I-PDGF-BB, 3 h at room temperature, immobilized purified PDGFR-β; read-out: Assay I50

Structure (SMILES) | IC50
CC[C@H](C)[C@@H]1NC(=O)[C@H](Cc2ccc(O)cc2)NC(=O)[C@@H]2CCCN2C(=O)[C@H]2CCCN2C(=O)[C@H](Cc2ccc(O)cc2)NC(=O)[C@@H]2CCCN2C(=O)[C@H](CCCCN)NC(=O)[C@H](CCCCN)NC(=O)[C@H](CCCNC(=N)N)NC(=O)[C@H](C(C)C)NC1=O [Example 7] (cyclo(PYIVRKKPY[dP])) | 1500 µM
CC(C)[C@@H]1NC(=O)[C@H](CCCCN)NC(=O)[C@H](Cc2ccc(O)cc2)NC(=O)[C@@H]2CCCN2C(=O)[C@H]2CCCN2C(=O)[C@H](Cc2ccc(O)cc2)NC(=O)[C@H](CCCCN)NC(=O)[C@H](CCCCN)NC(=O)[C@H](CCCCN)NC(=O)[C@H](CCCNC(=N)N)NC1=O [Example 12] (cyclo(PYKVRKKKY[dP])) | 1500 µM
CC[C@H](C)[C@@H]1NC(=O)[C@H](Cc2c[nH]c3ccccc23)NC(=O)[C@@H]2CCCN2C(=O)[C@H]2CCCN2C(=O)[C@H](Cc2c[nH]c3ccccc23)NC(=O)[C@@H]2CCCN2C(=O)[C@H](CCCCN)NC(=O)[C@H](CCCCN)NC(=O)[C@H](CCCNC(=N)N)NC(=O)[C@H](C(C)C)NC1=O [Example 13] (cyclo(PWIVRKKPW[dP])) | 260 µM
CC(C)[C@@H]1NC(=O)[C@H](C)NC(=O)[C@H](Cc2c[nH]c3ccccc23)NC(=O)[C@@H]2CCCN2C(=O)[C@H]2CCCN2C(=O)[C@H](Cc2c[nH]c3ccccc23)NC(=O)[C@H](C)NC(=O)[C@H](CCCCN)NC(=O)[C@H](CCCCN)NC(=O)[C@H](CCCNC(=N)N)NC1=O [Example 16] (cyclo(PWAVRKKAW[dP])) | 800 µM
CC(C)[C@@H]1NC(=O)[C@H](CO)NC(=O)[C@H](Cc2c[nH]c3ccccc23)NC(=O)[C@@H]2CCCN2C(=O)[C@H]2CCCN2C(=O)[C@H](Cc2c[nH]c3ccccc23)NC(=O)[C@H](CO)NC(=O)[C@H](CCCCN)NC(=O)[C@H](CCCCN)NC(=O)[C@H](CCCNC(=N)N)NC1=O [Example 17] (cyclo(PWSVRKKSW[dP])) | 800 µM
CC(C)[C@@H]1NC(=O)[C@H](Cc2c[nH]c3ccccc23)NC(=O)[C@H](C)NC(=O)[C@@H]2CCCN2C(=O)[C@H]2CCCN2C(=O)[C@H](C)NC(=O)[C@H](Cc2c[nH]c3ccccc23)NC(=O)[C@H](CCCCN)NC(=O)[C@H](CCCCN)NC(=O)[C@H](CCCNC(=N)N)NC1=O [Example 21] (cyclo(PAWVRKKWA[dP])) | 2000 µM

The next lines start with the values.

IC50 | Structure (SMILES)
2200 µM | CC[C@H](C)[C@@H]1NC(=O)[C@H](CCC(=O)O)NC(=O)[C@@H]2CCCN2C(=O)[C@H]2CCCN2C(=O)[C@H]([C@@H](C)CC)NC(=O)[C@@H]2CCCN2C(=O)[C@H](CCCCN)NC(=O)[C@H](CCCCN)NC(=O)[C@H](CCCNC(=N)N)NC(=O)[C@H](C(C)C)NC1=O [Example 1] (cyclo(PEIVRKKPI[dP]))
2000 µM | CC[C@H](C)[C@@H]1NC(=O)[C@H](Cc2ccc(O)cc2)NC(=O)[C@H](CCCCN)NC(=O)[C@H](CCCCN)NC(=O)[C@H](CCCNC(=N)N)NC(=O)[C@H](C(C)C)NC(=O)[C@H](Cc2ccc(O)cc2)NC(=O)[C@H](CCC(=O)O)NC(=O)[C@@H]2CCCN2C(=O)[C@H]2CCCN2C1=O [Example 2] (cyclo(PEYVRKKYI[dP]))
2000 µM | CC(C)[C@@H]1NC(=O)[C@H](C)NC(=O)[C@H](Cc2ccc(O)cc2)NC(=O)[C@@H]2CCCN2C(=O)[C@H]2CCCN2C(=O)[C@H](Cc2ccc(O)cc2)NC(=O)[C@H](C)NC(=O)[C@H](CCCCN)NC(=O)[C@H](CCCCN)NC(=O)[C@H](CCCNC(=N)N)NC1=O [Example 10] (cyclo(PYAVRKKAY[dP]))
2000 µM | CC(C)[C@@H]1NC(=O)[C@H](CO)NC(=O)[C@H](Cc2ccc(O)cc2)NC(=O)[C@@H]2CCCN2C(=O)[C@H]2CCCN2C(=O)[C@H](Cc2ccc(O)cc2)NC(=O)[C@H](CO)NC(=O)[C@H](CCCCN)NC(=O)[C@H](CCCCN)NC(=O)[C@H](CCCNC(=N)N)NC1=O [Example 11] (cyclo(PYSVRKKSY[dP]))
2000 µM | CC(C)[C@@H]1NC(=O)[C@H](Cc2ccc(O)cc2)NC(=O)[C@H](C)NC(=O)[C@@H]2CCCN2C(=O)[C@H]2CCCN2C(=O)[C@H](C)NC(=O)[C@H](Cc2ccc(O)cc2)NC(=O)[C@H](CCCCN)NC(=O)[C@H](CCCCN)NC(=O)[C@H](CCCNC(=N)N)NC1=O [Example 20] (cyclo(PAYVRKKYA[dP]))
1500 µM | CC[C@H](C)[C@@H]1NC(=O)[C@H](Cc2c[nH]c3ccccc23)NC(=O)[C@H](CCCCN)NC(=O)[C@H](CCCCN)NC(=O)[C@H](CCCNC(=N)N)NC(=O)[C@H](C(C)C)NC(=O)[C@H](Cc2c[nH]c3ccccc23)NC(=O)[C@H](CCC(=O)O)NC(=O)[C@@H]2CCCN2C(=O)[C@H]2CCCN2C1=O [Example 3] (cyclo(PEWVRKKWI[dP]))
800 µM | CC(C)[C@@H]1NC(=O)[C@H](Cc2ccc(O)cc2)NC(=O)[C@H](Cc2ccc(O)cc2)NC(=O)[C@@H]2CCCN2C(=O)[C@H]2CCCN2C(=O)[C@H](Cc2ccc(O)cc2)NC(=O)[C@H](Cc2ccc(O)cc2)NC(=O)[C@H](CCCCN)NC(=O)[C@H](CCCCN)NC(=O)[C@H](CCCNC(=N)N)NC1=O [Example 8] (cyclo(PYYVRKKYY[dP]))
500 µM | CC(C)[C@@H]1NC(=O)[C@H](CCCCN)NC(=O)[C@H](Cc2c[nH]c3ccccc23)NC(=O)[C@@H]2CCCN2C(=O)[C@H]2CCCN2C(=O)[C@H](Cc2c[nH]c3ccccc23)NC(=O)[C@H](CCCCN)NC(=O)[C@H](CCCCN)NC(=O)[C@H](CCCCN)NC(=O)[C@H](CCCNC(=N)N)NC1=O [Example 18] (cyclo(PWKVRKKKW[dP]))
170 µM | CC(C)[C@@H]1NC(=O)[C@H](Cc2ccc(O)cc2)NC(=O)[C@H](Cc2c[nH]c3ccccc23)NC(=O)[C@@H]2CCCN2C(=O)[C@H]2CCCN2C(=O)[C@H](Cc2c[nH]c3ccccc23)NC(=O)[C@H](Cc2ccc(O)cc2)NC(=O)[C@H](CCCCN)NC(=O)[C@H](CCCCN)NC(=O)[C@H](CCCNC(=N)N)NC1=O [Example 14] (cyclo(PWYVRKKYW[dP]))

Source: patent US6878804B1, “Synthesis of template-fixed β-hairpin loop mimetics” (University of Zurich, priority 1999, dated 2005)
